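Cells were grown in 96-well plates and exposed to each compound for 48 hours at five concentrations; endpoints were interpolated linearly between bracketing concentrations, or set to the highest concentration if not reached. The concentration for full growth arrest is given as TGI.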
Tests used:
Assay in all cases: NCI-60 cell line screen, 48 h
786-0 renal = system: 786-0 renal
A498 renal = system: A498 renal
A549 NSCLC = system: A549 NSCLC
ACHN renal = system: ACHN renal
BT-549 breast = system: BT-549 breast
CAKI-1 renal = system: CAKI-1 renal
CCRF-CEM leukemia = system: CCRF-CEM leukemia
COLO 205 colon = system: COLO 205 colon
DU-145 prostate = system: DU-145 prostate
EKVX NSCLC = system: EKVX NSCLC
HCC-2998 colon = system: HCC-2998 colon
HCT-116 colon = system: HCT-116 colon
HCT-15 colon = system: HCT-15 colon
HL-60(TB) leukemia = system: HL-60(TB) leukemia
HOP-62 NSCLC = system: HOP-62 NSCLC
HOP-92 NSCLC = system: HOP-92 NSCLC
HS 578T breast = system: HS 578T breast
HT29 colon = system: HT29 colon
IGROV1 ovarian = system: IGROV1 ovarian
K-562 leukemia = system: K-562 leukemia
KM12 colon = system: KM12 colon
LOX IMVI melanoma = system: LOX IMVI melanoma
M14 melanoma = system: M14 melanoma
MALME-3M melanoma = system: MALME-3M melanoma
MCF7 breast = system: MCF7 breast
MDA-MB-231 breast = system: MDA-MB-231 breast
MDA-MB-435 = system: MDA-MB-435
MDA-N = system: MDA-N
MOLT-4 leukemia = system: MOLT-4 leukemia
NCI-H226 lung = system: NCI-H226 lung
NCI-H23 lung = system: NCI-H23 lung
NCI-H460 lung = system: NCI-H460 lung
NCI-H522 lung = system: NCI-H522 lung
NCI/ADR-RES ovarian = system: NCI/ADR-RES ovarian
OVCAR-3 ovarian = system: OVCAR-3 ovarian
OVCAR-4 ovarian = system: OVCAR-4 ovarian
OVCAR-5 ovarian = system: OVCAR-5 ovarian
OVCAR-8 ovarian = system: OVCAR-8 ovarian
PC-3 prostate = system: PC-3 prostate
RPMI-8226 leukemia = system: RPMI-8226 leukemia
SF-268 CNS = system: SF-268 CNS
SF-295 CNS = system: SF-295 CNS
SF-539 CNS = system: SF-539 CNS
SK-MEL-2 melanoma = system: SK-MEL-2 melanoma
SK-MEL-5 melanoma = system: SK-MEL-5 melanoma
SK-OV-3 ovarian = system: SK-OV-3 ovarian
SN12C renal = system: SN12C renal
SNB-19 CNS = system: SNB-19 CNS
SNB-75 CNS = system: SNB-75 CNS
SR leukemia = system: SR leukemia
SW-620 colon = system: SW-620 colon
T-47D breast = system: T-47D breast
TK-10 renal = system: TK-10 renal
U251 CNS = system: U251 CNS
UACC-257 melanoma = system: UACC-257 melanoma
UACC-62 melanoma = system: UACC-62 melanoma
UO-31 renal = system: UO-31 renal

Compound CN(/N=C/c1ccccc1C(=O)O)C1=NCCCCN1 has a TGI (786-0 renal) of over 100 µM, a TGI (A498 renal) of over 100 µM and a TGI (A549 NSCLC) of over 100 µM. It also gave a TGI (ACHN renal) of over 100 µM, a TGI (BT-549 breast) of over 100 µM and a TGI (CAKI-1 renal) of over 100 µM. It also gave a TGI (CCRF-CEM leukemia) of over 100 µM, a TGI (COLO 205 colon) of over 100 µM and a TGI (DU-145 prostate) of over 100 µM. It also gave a TGI (EKVX NSCLC) of over 100 µM, a TGI (HCC-2998 colon) of over 100 µM and a TGI (HCT-116 colon) of over 100 µM. For the same compound, the TGI (HCT-15 colon) was over 100 µM, the TGI (HL-60(TB) leukemia) was over 100 µM and the TGI (HOP-62 NSCLC) was over 100 µM. For the same compound, the TGI (HOP-92 NSCLC) was over 100 µM, the TGI (HS 578T breast) was over 100 µM and the TGI (HT29 colon) was over 100 µM. It also gave a TGI (IGROV1 ovarian) of over 100 µM, a TGI (K-562 leukemia) of over 100 µM and a TGI (KM12 colon) of over 100 µM. It also gave a TGI (LOX IMVI melanoma) of over 100 µM, a TGI (M14 melanoma) of over 100 µM and a TGI (MALME-3M melanoma) of over 100 µM. For the same compound, the TGI (MCF7 breast) was over 100 µM, the TGI (MDA-MB-231 breast) was over 100 µM and the TGI (MDA-MB-435) was over 100 µM. It also gave a TGI (MDA-N) of over 100 µM, a TGI (MOLT-4 leukemia) of over 100 µM and a TGI (NCI-H226 lung) of over 100 µM. For the same compound, the TGI (NCI-H23 lung) was over 100 µM, the TGI (NCI-H460 lung) was over 100 µM and the TGI (NCI-H522 lung) was 36.7 µM. It also gave a TGI (NCI/ADR-RES ovarian) of over 100 µM, a TGI (OVCAR-3 ovarian) of over 100 µM and a TGI (OVCAR-4 ovarian) of over 100 µM. For the same compound, the TGI (OVCAR-5 ovarian) was over 100 µM, the TGI (OVCAR-8 ovarian) was over 100 µM and the TGI (PC-3 prostate) was over 100 µM. It also gave a TGI (RPMI-8226 leukemia) of over 100 µM, a TGI (SF-268 CNS) of over 100 µM and a TGI (SF-295 CNS) of over 100 µM. It also gave a TGI (SF-539 CNS) of over 100 µM, a TGI (SK-MEL-2 melanoma) of over 100 µM and a TGI (SK-MEL-5 melanoma) of over 100 µM. For the same compound, the TGI (SK-OV-3 ovarian) was over 100 µM, the TGI (SN12C renal) was over 100 µM and the TGI (SNB-19 CNS) was over 100 µM. It also gave a TGI (SNB-75 CNS) of over 100 µM, a TGI (SR leukemia) of over 100 µM and a TGI (SW-620 colon) of over 100 µM. It also gave a TGI (T-47D breast) of over 100 µM, a TGI (TK-10 renal) of over 100 µM and a TGI (U251 CNS) of over 100 µM. The TGI (UACC-257 melanoma) was over 100 µM, the TGI (UACC-62 melanoma) was over 100 µM and the TGI (UO-31 renal) was over 100 µM.

From PubChem BioAssay (NCI)
